Assay [1] has as its system RAW 264.7 cells. It is filed as cell-based, murine. Conditions: for Inhibition of LPS-induced RNI-IC50: LPS-induced (2.5 ng/ml LPS in FIG. 6B); for concentrations at which peptides are active in the bioassay: day-to-day variation. The method, then:
From the sequence of the CAP18 cDNA, it was apparent that the putative N-terminal peptide of CAP18 was in fact an internal fragment of the CAP18 protein. We therefore tried to reconfirm the original protein sequence. Neutrophil-derived heparin bound cationic proteins were prepared as described above and applied to a C18 reverse phase HPLC (FIG. 1). We sequenced the major peaks. Peaks at fractions 14.5 and 15.2 correspond to defensins MCP1 and MCP2 (Territo et al. (1989) J. Clin. Invest. 84:2017-2019), respectively. Fraction 25.8 is macrophage related protein 14 (MRP14) (Odink et al. (1987) Nature 330:80-82). The fraction at 20.3 minutes corresponds to a fragment of CAP18 of approximately 4-5 kD. […] The murine macrophage cell line RAW 264.7 (obtained from ATCC) and thioglycolate-elicited murine peritoneal exudate cells are used to produce RNI. Cells are cultured at 1×10^6 /ml. in RPMI-1640 +2.5% FCS in 24 well plates in the presence or absence of different concentrations of LPS or murine rlFNγ. After 24 hr. incubation at 37° C. the cell free supernatant is collected and tested for the presence of RNI. Accumulation of nitrite in the medium is measured by a colorimetric assay based on the Griess reaction (Green et al. (1982) Anal. Biochem. 126:11) using sodium nitrite as standards. Sample (50 μl) is mixed with 50 μl of Griess reagent (1% sulfanilamide, 0.1% naphthalene diamine dihydrochloride, 2.5% H3 PO4) and after 10 min. at room temperature absorbance is read at 570 nm.

In assay [2] the test system is Salmonella minnesota ReLPS sensitized sheep erythrocytes. Description: LPS hemagglutination assay (MAC). The format is binding. How it is done: For hemagglutination assays, erythrocytes were sensitized with LPS as follows. One ml of 1% erythrocyte suspension (human 0 type, C3H/HeN mouse or sheep) was mixed with 0.2 ml of LPS solution and incubated at 37° C. for 30 min, followed by washing with phosphate buffered saline (PBS), and then the concentration of suspension was adjusted to 1.0%. In the case of S-LPS, the solution was heated at 100° C. for 1 hour before sensitization of erythrocytes. […] Activity of CAP was expressed as a minimum agglutinating concentration (MAC) of CAP. According to the method of Kirikae et al. (1986) Microbiol. Immunol. 30:269-274, 50 μl of 2-fold serial dilution of Re-LPS was added to 50 μl of 1.0% rabbit erythrocyte suspension, and incubated at 37° C. for 3, hour. Minimum agglutinating concentration of Re-LPS was expressed as 1 HA unit.

In assay [3] the test system is thioglycolate-stimulated murine peritoneal macrophages. Description: LPS-induced tissue factor generation by macrophages. Conditions: for inhibition of LPS induced tissue factor: peptide 1 μg/ml, 6 hr, FIG. 12. It is filed as cell-based. How it is done: […] Cells were cultured for 6 hours prior to assay of tissue factor by clotting assay.
[…] Production of tissue factor after 6 hr. was measured by clotting assay. […] In the absence of LPS no tissue factor is synthesized by these cells.

Assay [4] concerns the target T1, factor Xa (Homo sapiens, UniProt P00742).
T1 construct: purchased Sigma Chemical Co., St. Louis, Mo
Description: Direct inhibition of Xa, substrate S2222. It is filed as biochemical. Conditions: for direct Xa inhibition: concentrations over 10 μg/ml, substrate S2222; for pIC50 / IC50, Direct Xa: synthetic substrate. The text has this: (§1) Clotting method: Human plasma (Ortho plasma control, Ortho Diagnostic Co.). ATPP reagent (Organotechnika, Tokyo, Japan). Standard tissue factor, rabbit brain thromboplastin (Simplastin, ONO Pharmaceutical, Tokyo, Japan). Purified human factor VII, factor X, factor Xa (Sigma Chemical Co., St. Louis, Mo.). Russell Viper venom (RVV) and Echis carinatus venom (ECV, Sigma Co.).
(§2) Synthetic chromogenic substrate method: Substrate for factor Xa, S2222 (Kabi, Bz-Ile-Glu-Arg-pNA) was used. Substrate for factor II (prothrombin), Boc-Val-Pro-Arg-pNA (Sigma Chemical Co.) was used.
Next the effect of the RNIP peptides on the conversion of factor X to Xa was studied by two methods. […] In summary these studies confirmed that the peptides inhibit the clotting cascade by inhibiting the conversion of factor X to Xa.

Assay [5] has as its target T2, factor X (Homo sapiens, UniProt P00742).
T2 construct: purchased Sigma Chemical Co., St. Louis, Mo
Nature of the assay: Factor X activation by tissue factor and factor VII, synthetic substrate S-2222. It is filed as biochemical. Conditions: FIG. 16B.
Text: as §1, §2
A reaction mixture of factor VII (1 unit/ml, 200 μl), factor X (1 unit/ml, 200 μl), tissue factor (2.5 mg/ml, 50 μl), 25 mM-CaCl2(50 μl) and 50 μl of several concentration of peptide was incubated at 37° C. for 10 min. To 200 μl of the reaction mixture, 60 μl of 4 mM S-2222, a synthetic substrate for factor Xa, and 340 μl of Tris-HCl buffer, pH 8.2, was added and further incubated for 15 min. The reaction was stopped by adding 60 μl of 50% acetic acid, and OD for p-nitroaniline was read at 405 nm.

Assay [6] concerns the target T3, prothrombin (factor II) (Homo sapiens, UniProt P00734). Nature of the assay: Prothrombin activation by Echis carinatus venom (ECV). It is filed as biochemical. Conditions: FIG. 17A. How it is done: as §2
A reaction mixture of prothrombin (factor II) (0.1 unit/ml, 200 μl), ECV (1 unit/ml, 200 μl), various concentration of peptide (70 μl), 50 μl of 25 mM-CaCl2 and 180 μl of Tris buffer was incubated at 37° C. for 10 min. To 300 μl of the reaction mixture, 60 μl of 4mM-thrombin substrate and 240 μl of buffer was added and further incubated for 15 min.

Assay [7] addresses T3, prothrombin (factor II). Nature of the assay: Prothrombin activation by factor Xa. Conditions: Xa formed from tissue factor, factor VII and factor X, FIG. 17B. The format is biochemical. The method, then: as §2
a) Factor X activation. Factor X (1 unit/ml, 400 μl) was activated by incubating with a reaction mixture of factor VII (1 unit/ml, 400 μl), tissue factor (5 mg/ml, 100 μl) and CaCl2 at 37° C. for 10 min.
b) Prothrombin (factor II) activation.
c) Hydrolysis of thrombin substrate. To 300 μl of the reaction mixture (step b), thrombin 60 μl of substrate and 240 μl of Tris buffer was added and further incubated for 15 min.

The test system of assay [8] is Candida albicans. Description: Antimicrobial activity. Conditions: range 0-20 μg/ml.
In assay [9] the test system is Klebsiella pneumoniae. Description: Antibacterial CFU assay.
Assay [10] has as its system methicillin-sensitive Staphylococcus aureus. Description: Antibacterial CFU assay. Conditions: for pIC50: read-out: IC50, inhibition of CFU.

pIC50: −log10 of the molar value. Like-named read-outs stand apart in the source and are kept apart here.

T1 sequence (P00742 41-179 limits assumed): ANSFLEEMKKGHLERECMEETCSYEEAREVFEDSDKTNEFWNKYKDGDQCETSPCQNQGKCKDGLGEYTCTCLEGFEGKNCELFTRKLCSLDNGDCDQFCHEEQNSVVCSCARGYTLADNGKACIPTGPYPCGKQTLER
T1 sequence (P00742 235-488 limits assumed): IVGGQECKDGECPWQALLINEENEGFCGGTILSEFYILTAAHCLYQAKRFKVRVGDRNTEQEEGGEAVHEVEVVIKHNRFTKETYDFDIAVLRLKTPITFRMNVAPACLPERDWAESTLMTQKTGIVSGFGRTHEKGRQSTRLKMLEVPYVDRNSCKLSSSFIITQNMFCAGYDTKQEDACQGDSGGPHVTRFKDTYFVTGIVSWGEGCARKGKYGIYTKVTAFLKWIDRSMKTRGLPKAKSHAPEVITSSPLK
T2 sequence (P00742 41-179 limits assumed): as the sequence (P00742 41-179 limits assumed) above
T2 sequence (P00742 183-488 limits assumed): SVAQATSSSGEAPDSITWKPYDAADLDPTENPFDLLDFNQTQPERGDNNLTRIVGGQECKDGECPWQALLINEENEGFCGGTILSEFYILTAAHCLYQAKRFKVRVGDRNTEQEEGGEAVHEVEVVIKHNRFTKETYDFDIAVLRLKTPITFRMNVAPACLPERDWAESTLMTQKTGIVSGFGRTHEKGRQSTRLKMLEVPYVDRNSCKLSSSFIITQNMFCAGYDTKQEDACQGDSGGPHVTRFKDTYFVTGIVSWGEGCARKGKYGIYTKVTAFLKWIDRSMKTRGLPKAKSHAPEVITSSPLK

Regarding “RNIP: reactive nitrogen inhibitory protein, amino acids 135-171 of SEQ ID NO:4 (rabbit CAP18 C-terminus); purified from granulocytes or synthetic (#197) (GLRKRLRKFRNKIKEKLKKIGQKIQGLLPKLAPRTDY)”, in assay [1], the “activity in hemagglutination and inhibition of LPS-induced RNI” value is “active”. For the same substance, the pIC50 in [1] (2.5 ng/ml LPS, FIG. 6B, read-out: 50% inhibitory concentration (IC50), LPS-induced RNI production) was roughly 7.52; in [4] it was 4.48 to 5.05; in [5] (read-out: IC50, factor X activated by tissue factor and purified factor VII), 7.00 to 7.40; in assay [6] (read-out: IC50, Echis carinatus venom activation of factor II to IIa), 5.82; in assay [9] (read-out: anti-bacterial IC50 (CFU)) it was greater than 7.15; in [10], 6.82. Also, the “capacity to inhibit LPS-stimulated nitrogen radical release from macrophages” value in assay [1] (HPLC-purified rabbit peptides, FIG. 5) was “active”. Moreover, the “reactive nitrogen intermediates (RNI)” value in assay [1] (LPS (2.5 ng/ml), RNIP (1:1), stimulus alone 27) turned out to be 4 µM; in assay [1] (LPS (2.5 ng/ml), RNIP (1:10), stimulus alone 27), 16 µM; in assay [1] (LPS (2.5 ng/ml), RNIP (1:100), stimulus alone 27) it was 24 µM; in assay [1] (Murine IFNγ (250 U), RNIP (1:1), stimulus alone 30), 15 µM; in [1] (Murine IFNγ (250 U), RNIP (1:10), stimulus alone 30) it was 18 µM; in assay [1] (Murine IFNγ (250 U), RNIP (1:100), stimulus alone 30) it was 20 µM. Moreover, the “Inhibition of LPS-induced RNI-IC50” value was “about 0.2 μg/ml” in assay [1] and 0.2 µg/mL in [1] (listed as 197/RNIP). Besides, in assay [1], the “concentrations at which peptides are active in the bioassay” value fell in the range of 10 to 50 nM. In assay [2], the “Hemagglutination MAC (minimum agglutinating concentration)” value is 7.9 µg/mL. In [3] (added as late as 3 hours after the LPS stimulus, FIG. 13), the “inhibition of LPS-induced tissue factor generation when peptide added after LPS” value is reported as “Significant inhibition”. The “inhibition of LPS induced tissue factor” value in [3] was “inhibition”. Moreover, in assay [4], the “direct Xa inhibition” value is “No evidence of direct Xa inhibition”. The “IC50, Direct Xa” value in assay [4] lay within 55 to 200 µg/mL. The “IC50, factor X activated by tissue factor and purified factor VII” value in assay [5] fell in the range of 0.3 to 0.6 µg/mL. Moreover, in assay [6], the “IC50, Echis carinatus venom activation of factor II to IIa” value came out at 9.4 µg/mL. In addition, in assay [6], the “inhibition of Echis carinatus venom activation of purified factor II to IIa” value is “inhibited”. Further, the “IC50, factor II activated by Xa” value in assay [7] turned out to be 2.8 µg/mL. The “activity versus Candida albicans” value in assay [8] is “inactive”. Further, the “anti-bacterial IC50 (CFU)” value in assay [9] was less than 440 ng/mL. In addition, in assay [10], the “IC50, inhibition of CFU” value stood at 940 ng/mL.

As to “36-1: synthetic rabbit RNIP-derived fragment, amino acids 135-166 of SEQ ID NO:4 (GLRKRLRKFRNKIKEKLKKIGQKIQGLLPKLA)”, in assay [1], the “activity in hemagglutination and inhibition of LPS-induced RNI” value is on record as “active”; the “Inhibition of LPS-induced RNI-IC50” value amounted to 0.08 µg/mL; the “concentrations at which peptides are active in the bioassay” value lay in the range of 10 to 50 nM. Also, in [2], the “Hemagglutination MAC (minimum agglutinating concentration)” value was 3.9 µg/mL. Besides, the “inhibition of LPS induced tissue factor” value in assay [3] is “inhibition”. In assay [4], the “direct Xa inhibition” value is “No evidence of direct Xa inhibition”; the pIC50 was 4.34 to 5.10; the “IC50, Direct Xa” value lay within 45 to 250 µg/mL. Moreover, in [5], the “IC50, factor X activated by tissue factor and purified factor VII” value lay in the range of 0.6 to 0.7 µg/mL. For the same substance, the “inhibition of Echis carinatus venom activation of purified factor II to IIa” value in assay [6] was “inhibited”. Besides, the “IC50, factor II activated by Xa” value in [7] is less than 1.8 µg/mL. Moreover, the pIC50 in assay [7] (read-out: IC50, factor II activated by Xa) was greater than 6.52. Also, the “activity versus Candida albicans” value in assay [8] is “inactive”. Moreover, in assay [9], the “anti-bacterial IC50 (CFU)” value is less than 540 ng/mL. Also, in assay [10], the “IC50, inhibition of CFU” value was 580 ng/mL and the pIC50 is 6.96.

The values are drawn from US5618675A, “Methods and compositions for detecting lipopolysaccharides using CAP18 fragments” (Panorama Research, Inc., dated 1997).
